The source of these data is US3976672A, “(Hydrocarbylphenylsulfonyl)alkyltrimethylstannanes” (priority 1975, dated 1976).

The test system of data set [1] is tobacco bud worm, Heliothis virescens (Fabricius). As to the kind of experiment: Tobacco Bud Worm Diet Test. The format is in vivo. To be noted: 1000 PPM, one week, Abbott-adjusted, 10080 min. As to the method: Test formulations were prepared at 1000 ppm as in B, the Aphid Contact Test, above. Two-tenths ml of the diluted formulations was pipetted onto the surface of 5 grams of a synthetic diet mixture held in partially filled cells of a plastic jelly tray. Five cells were treated with each chemical dilution. The diet mixture was a modified Vanderzant diet consisting of wheat germ, soy flour, agar, sugar, salts, vitamins, preservatives and water. The jelly trays had fifty cavities per sheet, each cavity being approximately 2.5 × 4.0 × 1.5 cm.
Following treatment, a third or early fourth instar larva of the tobacco bud worm, Heliothis virescens (Fabricius), was placed in each cell. The trays were then covered with a plastic film plus a sheet of rigid plastic and were held in an incubator at 80° F.
At the end of one week, the trays were examined and the percent control was determined, adjusted for any natural mortality in the controls by Abbott's formula. The trays were held an additional week and any abnormalities in the development of the survivors was noted.
(§1) F. Abbott's Formula: [formula]

Data set [2] relates to adult mites, urticae Koch. Nature of the data set: Mite One-Day Residual Test (Example 8). To be noted: 500 PPM, cotton, six days after infestation; 8640 min. The format is in vivo. As to the method:
Test compounds were prepared as in B, the Aphid Contact Test, above but were further diluted to 500 ppm with water.
Cotton, in the second primary leaf stage grown in twelve ounce cups under greenhouse conditions at 70°-75° F., was used in the test.
one plant (two primary leaves) in one pot was used for each replicate; two replicates were used for each concentration of organotin compound tested.
The plants were sprayed with the dispersions using a small spray atomizer to throughly drench the foliage.
One day following treatment, a circle of tree tanglefoot was placed on the upper surface of the treated leaves and adult mites, urticae Koch, were transferred into this confinement.
Six days following infestation with mites, the plants were examined for adult live mites remaining on the leaves. On an estimation basis in comparison with the number of living mites on the control plants, the percent control was determined.

Data set [3] has as its system cotton boll weevils, Anthonomous grandis Boheman. Nature of the data set: Cotton Boll Weevil Test. To be noted: for % Control Cotton Boll Weevil: 1000 PPM, cotton seedlings, five days, Abbott-corrected, 7200 min; for Boll Weevil % Feeding Reduced on Cotton: 1000 ppm, visual comparison of feeding damage. Format: in vivo. The method, then:
Formulations were prepared at 1000 ppm as in B, the Aphid Contact Test, above. Cotton seedlings 12 to 14 days old grown in 12 oz cups were used. Two pots were treated with each formulation by spraying with a spray atomizer while rotating the pots on a turntable. Five adult cotton boll weevils, Anthonomous grandis Boheman, were placed in each pot following treatment and were caged by covering the pots with an inverted 16 oz styrofoam cup with small perforations punched in the bottom. The surviving weevils were counted after five days in the greenhouse to determine the percent control, corrected for any natural mortality in the control plants by Abbott's formula. The percent reduction in feeding was estimated by visual comparison of the feeding damage to the treated plants with the control (untreated) plants.
as §1

The test system of data set [4] is yellow fever mosquito, Aedes aegypti (Linnaeus). The format is in vivo. To be noted: 1 PPM, 72 hours. As to the method:
Formulations were prepared by dissolving 30 mg of organotin compound of the invention in 10 ml of acetone. This solution was then diluted to 1 ppm with water. Two 25-ml aliquots were placed in test tubes to which were added 10 to 25 fourth instar larvae of the yellow fever mosquito, Aedes aegypti (Linnaeus). The tubes were held in darkness for 72 hours. At the end of this period the percent control was determined.

Data set [5] concerns corn leaf aphids Rhopalosiphum maidis (Fitch). Nature of the data set: Aphid Contact Test. Format: in vivo. To be noted: 1000 PPM spray, barley, 5 days. As to the method: Test formulations were prepared for spraying at 1000 ppm (parts per million) concentration by dissolving them in a small amount of acetone and adding a suitable wetting agent. Typically, […] of organotin compound was dissolved (or suspended) in 10 ml of acetone, 2 drops of Triton-X100 wetting agent (octylphenoxy polyethoxy ethanol with 9-10 mole percent of polyethylene oxide) were added and this was suspended in 300 ml of water make a 6000 ppm suspension. An aliquot was then further diluted with distilled water to 1000 ppm concentration of organotin compound.
Eight to ten day old barley seedlings, grown ten plants each in a 12 oz. cup, were infested with corn leaf aphids Rhopalosiphum maidis (Fitch), two days prior to treatment. Two pots were treated with each formulation by spraying with a spray atomizer while the plants were rotating on a turntable. Following treatment, the plants were held for 5 days in the greenhouse. At the end of this period, the percent control of the aphids was estimated based on the reduction of the population density as compared to untreated plants used as controls.

The nature of data set [6]: Hydrolysis in humid air (81% humidity chamber). Format: physicochemical. From the text:
A. The compound subjected to humid air was a typical Peterson compound, phenylsulfonylmethyltrimethylstannane, [formula] A 5 gal. jar was set on its side on a wooden support and contained a wire mesh screen to support samples in test over a mixture of 152 g of (NH4)2 SO4 in 168 g of H2 O. An excess of (NH4)2 SO4 in contact with a saturated aqueous solution of (NH4)2 SO4 gives 81% humidity in a closed space.^1 The following samples of this Peterson compound were weighted into 40 mm O.D. petri dishes (minus cover) of 8 mm depth and the dishes placed into the humidity chamber, and the chamber was then closed: No. 15 dish 0.2186 g; No. 34 dish 0.2006 g. Before the samples were removed from the balance, a solid crust began forming on the surface of the liquid and, inside of ten minutes, covered all of the liquid surface. An odor of a volatile trimethyltin compound was noted. When the samples were placed in the humidity chamber, the samples coated almost all of the surface area inside the dishes. The 5 gal. jar was set on the bench under normal laboratory lighting. The initial temperature inside the chamber was 24.5° C. Over 4 days, the temperature ranged from the initial temperature as a high to a low temperature of 18° C. The No. 15 sample was removed after 4 days. Under the surface crust, there was an oily solid. The sample was scraped with a spatula into a 2 dram sample vial. The oily solid remaining was washed into the vial with chloroform (about 0.5 to 1 ml). The chloroform was removed under a stream of nitrogen. The No. 34 sample was removed from the chamber after 7 days. The sample was completely solid and was scraped into a vial.
at 307 Hz and a broadened singlet flanked by satellites at 36.5 Hz for (CH3)3 Sn and a broadened singlet at 191 Hz for the OH.
B. A corresponding compound, closely related to the compounds of this invention, phenylsulfonylethyltrimethylstannane, [formula] was subjected to similar humidity conditions in the same equipment. […]

For data set [7] the following is noted: cited from earlier work.
For data set [8], the system named is adult mites, Tetranychus urticae koch. Nature of the data set: Mite one-day residual test, comparative (Table VII). Format: in vivo. The settings on record: 3 days after loading mites, 85° F. As to the method:
Cotton in the second primary leaf stage, grown in twelve ounce cups under greenhouse conditions at 70°-75° F. was used in this test. One plant (two primary leaves) in one pot was used for each replicate and two replicates were used for each concentration of tin compound tested. Test formulations were prepared by dissolving 50 mg of tin compound in one ml of acetone, adding one drop of Emulfor 719, a commercial surface-activedispersing agent (polyoxyethylated vegetable oil) and suspended in 50 ml of water for concentration of 1000 ppm (parts per million). Aliquots of this solution were further diluted with distilled water to concentrations of 100, 20 and 5 ppm. The plants were sprayed with the formulations using a small spray atomizer to thoroughly drench the foliage. One day following treatment, a circle of tree tanglefoot was placed on the upper surfaces of the treated leaves and adult mites, Tetranychus urticae koch, were transferred into this confinement. Counts of these mites were made immediately following transfer and again six days later.
The mite one-day residual test differed as follows from that set forth in Example 9. The plants were held in a growth chamber maintained at 85° F., and were exposed to high intensity fluorescent lights for 14 hour days. The recorded observations were made 3 days after loading the mites.
(§2) The 3-day tobacco bud worm test on cotton differed as follows from that set forth in Example 10. The plants used were 3 weeks old, and were covered with cheesecloth during the test. Six replicates were used for each test compound, with 1 worm per plant. The plants were infested with larva 3 days after the spray application and the recorded observations were made 6 days after the spray application.

The subject of data set [9] is tobacco bud worm, Heliothis virescens (Fabricius). As to the kind of experiment: 3-day tobacco bud worm test on cotton, comparative (Table VII). The format is in vivo. To be noted: 6 days after spray. The method, then: Tesst formulations were prepared by dissolving 50 mg of organotin compound of the invention in one ml of acetone, adding one drop of Emulfor 719, a commercial surface-active dispersing agent (polyoxyethylated vegetable oil) and suspending in 50 m1 of water for a concentration of 1000 ppm (parts per million). Aliquots of the solution were further diluted with distilled water to concentrations of 100, 20 and 5 ppm.
Cotton seedlings two weeks old were used. These were grown in 12 ounce cups with two plants in each cup. The diluted formulations were applied to the seedling plants with a spray atomizer and allowed to dry. Three cups were treated with each diluted formulation. A third instar larvae of the tobacco bud worm, Heliothis virescens (Fabricius). was placed in each cup and confined by inverting a perforated 16 oz. styrofoam cup over the top. Percent control of the worms and amount of feeding damage to the plants was determined after two weeks in the greenhouse.
as §2

Consider “2-(p-dodecylphenylsulfonyl)ethyltrimethylstannane [Compound 11]”, for which the “% Control Tobacco Bud Worm” value in [1] is 100%. In addition, the “% Control Mite One-Day Residual” value in data set [2] stood at 100%. For the same compound, in data set [3], the “% Control Cotton Boll Weevil” value was 100% and the “Boll Weevil % Feeding Reduced on Cotton” value is 50%. The “% Control Mosquito Larvae” value in data set [4] came to 100%. Further, the “% Control Aphids” value in data set [5] was determined as 90%.

As to 2-Thioacetoxyethyltri-n-butyltin, the “% Control Tobacco Bud Worm” value in [1] is on record as 20%. Besides, the “% Control Mite One-Day Residual” value in [2] was 80%. Also, in data set [3], the “% Control Cotton Boll Weevil” value came out at 40% and the “Boll Weevil % Feeding Reduced on Cotton” value is 90%. For the same compound, the “% Control Mosquito Larvae” value in data set [4] is listed as 55%. Further, the “% Control Aphids” value in [5] is on record as 95%.

With `C[CH](S(=O)(=O)c1ccc(C(C)(C)C)cc1)[Sn]([CH3])([CH3])[CH3]` (centres unmarked) [1-[p-t-butylphenylsulfonyl]ethyltrimethylstannane], the hydrolysis deficiencies entry in [6] (comparison with the Peterson compound) is “suffers from the same hydrolysis deficiencies as does the Peterson compound”.

With `CCC[CH2][Sn]([CH2]CCC)([CH2]CCC)[CH2]S(=O)(=O)c1ccccc1` [[(Phenylsulfonyl)methyl]tributyltin], the “reactivity toward carbon dioxide and oxygen” value in data set [7] (room temperature) was “unreactive toward carbon dioxide and oxygen at room temperature”. In addition, the “decomposition to phenyl methyl sulfone and tributyltin oxide on exposure of a thin layer to air” value in [7] (within four days, 5760 min) was “ca. 50%”.

As for `[CH3][Sn]([CH3])([CH3])[CH2]CS(=O)(=O)c1ccccc1` [trimethylphenylsulfonylethylstannane, phenylsulfonylethyltrimethylstannane], the “hydrolysis in humid air (infrared, NMR)” value in data set [6] (81% humidity, 27° C./room temperature, 4 days and 2 weeks) was “not subject to hydrolysis under the stated conditions”.

With `[CH3][Sn]([CH3])([CH3])[CH2]S(=O)(=O)c1ccccc1` [trimethylphenylsulfonylmethylstannane, phenylsulfonylmethyltrimethylstannane], the “hydrolysis in humid air (NMR)” value in [6] (81% humidity, 18-24.5° C., 4 days and 7 days) is reported as “no unreacted starting Peterson compound”.

In the case of `[CH3][Sn]([CH3])([CH3])[OH]` [trimethyltin hydroxide], the “Mite One-Day Residual % Control” value was 7% in data set [8] (0.15 millimoles/liter), 34% in data set [8] (0.3 millimoles/liter) and 9% in [8] (0.6 millimoles/liter). Also, the “Tobacco Bud Worm % Control” value in data set [9] (0.15 millimoles/liter) worked out at 16%; in data set [9] (0.3 millimoles/liter), 16%; in data set [9] (0.6 millimoles/liter), 66%. The “Tobacco Bud Worm % Feeding Reduced” value in data set [9] (0.15 millimoles/liter) was 50%; in [9] (0.3 millimoles/liter), 69%; in [9] (0.6 millimoles/liter) it was 81%.

In the case of Trimethyltin p-toluenesulfinate, the “% Control Tobacco Bud Worm” value in data set [1] was 100%. Moreover, the “% Control Mite One-Day Residual” value in data set [2] is on record as 100%. In data set [3], the “% Control Cotton Boll Weevil” value came to 100% and the “Boll Weevil % Feeding Reduced on Cotton” value stood at 100%. For the same compound, the “% Control Mosquito Larvae” value in [4] is recorded as 0%. For the same compound, the “% Control Aphids” value in data set [5] turned out to be 98%.
